Laboratory results published in PMC7464559, “Synthesis, Optimization, Antifungal Activity, Selectivity, and CYP51 Binding of New 2-Aryl-3-azolyl-1-indolyl-propan-2-ols” (Pharmaceuticals, 2020).
Values after ≈ are worked out from the molar mass of the structure shown. “Also recorded” adds a separate entry of the source.

Columns and labels:
[1] = tested on: CK98003 (Candida krusei); experiment: Anti-Candida in vitro assay, CK98003; type: cell-based; conditions: Pichia kudriavzevii; Candida krusei CK98003, mean of triplicate; read-out: MIC (IC80) CK98003
In short: (§1)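 Candida at 10^3 cells/mL in RPMI 1640 with 0.165 M MOPS and 2% glucose exposed to compound dilutions 24 h at 37 °C, in triplicate. Viability by Alamar Blue fluorescence (ex 550/em 590 nm) after 4 h; MIC is the triplicate mean.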

[2] = tested on: ATCC90018 Candida parapsilosis strain; experiment: Anti-Candida in vitro assay, ATCC90018; type: cell-based; conditions: Lodderomyces parapsilosis; Candida parapsilosis ATCC90018, mean of triplicate; read-out: MIC (IC80) ATCC90018
In short: as §1

[3] = molecular target: T1, 17α-hydroxylase/17,20-lyase (CYP17) (Homo sapiens, UniProt P05093); experiment: In vitro inhibition of 17α-hydroxylase/17,20-lyase; type: biochemical; conditions: at 2.5 µM
T1 sequence (P05093 1-508): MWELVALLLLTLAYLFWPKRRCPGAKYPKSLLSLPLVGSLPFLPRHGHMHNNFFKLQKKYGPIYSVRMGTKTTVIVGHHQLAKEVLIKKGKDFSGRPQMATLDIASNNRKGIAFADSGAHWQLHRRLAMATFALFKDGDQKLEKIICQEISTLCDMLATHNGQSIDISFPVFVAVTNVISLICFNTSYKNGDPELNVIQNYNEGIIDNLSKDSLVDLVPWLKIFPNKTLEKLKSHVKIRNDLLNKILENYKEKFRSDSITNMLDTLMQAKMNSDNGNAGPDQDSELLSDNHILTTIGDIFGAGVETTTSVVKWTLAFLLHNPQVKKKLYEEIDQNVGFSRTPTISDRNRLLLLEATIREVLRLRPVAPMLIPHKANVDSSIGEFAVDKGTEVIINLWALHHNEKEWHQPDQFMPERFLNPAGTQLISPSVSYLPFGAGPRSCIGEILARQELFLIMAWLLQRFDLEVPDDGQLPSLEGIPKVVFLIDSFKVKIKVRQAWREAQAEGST
Method: The assay was performed similar to described methods [29, 52]. […] Microsomal protein was added to start the reaction. […] After the addition of 1 mL EtOAc, the vials were shaken then centrifuged. The organic phase was removed, vortexed with phosphate buffer (250 µL), 1 M aqueous HCl (50 µL), and then dried. Aliquots of 25 µL methanol, containing 250 pmol of fluorocortisol acetate as internal standard, were added to the extracts. The samples (20 µL) were submitted to HPLC (RP-8 column, methanol/water 1:1, v/v) and measured using UV (240 nm).

[4] = molecular target: T2, 11β-hydroxylase (CYP11B1) (Homo sapiens, UniProt P15538); experiment: In vitro inhibition of CYP11B1 (Schizosaccharomyces pombe SZ1); type: cell-based; conditions: inhibitor 100 nM to 5 µM, three to four independent experiments
T2 construct: expressed in transfected cells; host or cells: Schizosaccharomyces pombe strain SZ1
T2 sequence (P15538 25-503): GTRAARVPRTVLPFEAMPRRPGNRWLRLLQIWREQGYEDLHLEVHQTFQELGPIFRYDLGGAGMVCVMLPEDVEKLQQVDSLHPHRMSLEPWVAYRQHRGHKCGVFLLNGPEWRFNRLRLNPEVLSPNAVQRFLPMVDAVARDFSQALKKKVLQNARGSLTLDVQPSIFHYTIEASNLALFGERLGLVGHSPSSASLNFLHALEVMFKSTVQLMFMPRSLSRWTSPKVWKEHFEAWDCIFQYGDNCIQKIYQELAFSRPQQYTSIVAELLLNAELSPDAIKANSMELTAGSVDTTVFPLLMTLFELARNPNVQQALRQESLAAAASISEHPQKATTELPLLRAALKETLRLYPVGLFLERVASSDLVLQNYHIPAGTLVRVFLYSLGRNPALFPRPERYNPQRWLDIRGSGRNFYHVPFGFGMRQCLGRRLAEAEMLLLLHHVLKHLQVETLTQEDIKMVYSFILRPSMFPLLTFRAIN
Method: For the CYP11B1 assay, 11-deoxycortisol (RSS) was used as substrate, whereas 11-deoxycorticosterone (DOC) was used for the CYP11B2 assay. These non-radioactive steroids were purchased from Sima (Deisenhofen, Germany). Radioactive steroids were obtained from Amersham Pharmacia Biotech (Freiburg, Germany). Two Schizosaccharomyces pombe strains were used, SZ1 expressing CYP11B1 and MB164 expressing CYP11B2. The assays were performed as described previously by Bureik et al.. Exponentially growing fission yeast cells were cultivated by shaking and with good aeration at 30 °C in 500 µL Edinburgh Minimal Medium Glutamate (EMMG) containing supplements as required. Inhibitors were dissolved in ethanol at different concentrations, and equal volumes of ethanolic solutions were used in all cases (including controls). Final concentrations of inhibitors ranged from 100 nM to 5 µM. Cells were preincubated with the respective inhibitor solutions for 15 min prior to the addition of steroid substrates (100 nM DOC or 100 nM RSS, respectively). For detection of steroids, 1% of the total substrate amount was radioactively labeled as [^3H]RSS, [^3H]DOC, or [^14C]DOC. After 4 h (MB164) or 24 h (SZ1) cultures were extracted with chloroform and dried under vacuum. The residues were dissolved in 10 µL chloroform and spotted onto glass-backed silica-coated HPTLC plates (Kieselgel 60 F254, Merck; Darmstadt, Germany). In addition, small amounts of non-radioactive steroids were spotted as references. The HPTLC was developed twice in chloroform/methanol/water (300:20:1, v/v/v) and steroids identified after exposure to Fuji imaging plates and quantitated on a phosphoimager (BAS-2500, Fuji; Stamford, CT, USA).

[5] = MRC5 toxicity assay; type: cell-based, human; conditions: human, MRC-5 human fetal lung fibroblast cells, MRC-5 cells, 96-h incubation, mean of triplicate; read-out: Cytotoxicity IC50 on MRC-5 cells
In short: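 MRC5 fibroblasts in RPMI 1640 with 10% FBS were exposed to compounds at 100, 10 and 1 µM in triplicate for 96 h. Viability was read by Uptiblue fluorescence after a 4-h dye incubation. IC50 is the mean of triplicates, and toxicity index = MRC5 IC50 / geometric mean MIC against Candida spp.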

For `OC(Cn1cncn1)(Cn1ccc2ccccc21)c1ccc(Cl)cc1Cl` (centres unmarked) [Compound 8g, 2-(2,4-Dichlorophenyl)-3-(1H-indol-1-yl)-1-(1H-1,2,4-triazol-1-yl)-propan-2-ol], the MIC [1] was 3.56 µg/mL (≈ 9.2 µM), the MIC [2] was 0.15 µg/mL (≈ 0.387 µM) and the inhibition at […] [3] was under 10%. The CYP11B1 inhibition effect [4] was “no inhibitory activity; also recorded: no inhibition”.
Compound `O[C@@](Cn1cncn1)(Cn1ccc2ccccc21)c1ccc(Cl)cc1Cl` [(+)-(R)-8g] has an MIC [1] of 19.4 µg/mL (≈ 50 µM), an MIC [2] of over 38.7 µg/mL and an IC50 at 96 h [5] of 32 µM. The inhibition at […] [3] was under 5% and the CYP11B1 inhibition effect [4] was “no inhibition”.
Compound `O[C@](Cn1cncn1)(Cn1ccc2ccccc21)c1ccc(Cl)cc1Cl` [(−)-(S)-8g] has an MIC [1] of 0.039 µg/mL (≈ 0.101 µM), an MIC [2] of 0.027 µg/mL (≈ 0.0697 µM) and an IC50 at 96 h [5] of 30 µM. For the same compound, the inhibition at […] [3] was under 5% and the CYP11B1 inhibition effect [4] was “no inhibition”.
